Reference: patent US20080160509A1, “ASSAYS FOR PREDICTING AND ASSESSING PREDISPOSITION TO MALE PATTERN BALDNESS” (priority 2006, published 2008)

Experiments:
[1] = target: sex hormone binding globulin (SHBG) (Homo sapiens, UniProt P04278); conditions: ratio versus testosterone; cited from earlier work
[2] = system: bald subject (Norwood Level VII); experiment: Antiviral agent and hair growth study in a bald subject; format: in vivo, human
From the text: A bald subject (Norwood Level VII) who routinely gets fever blisters volunteered to take place in a study to see if the topical application and oral consumption of antiviral drugs would result in hair growth. The individual lacks any hairs on the top of their head. The participant was instructed to cleanse their scalp twice daily with a liquid cleanser using a sonic skincare brush (Clarisonic®). After cleansing topical acyclovir (5%) was applied. The subject is not a candidate for any of the FDA-approved hair loss medications because of a lack of vellus hairs.
After approximately four weeks of treatment, the participant was given valacyclovir (500 mg) instead of oral acyclovir because of potential acyclovir resistance. In addition, the concentration of topical acyclovir was increased to 10%.
The fact that vellus hair formation occurred and converted to pigmented hairs is highly unexpected in a participant with Norwood Level VII baldness.

sex hormone binding globulin (SHBG), sequence (P04278 30-402): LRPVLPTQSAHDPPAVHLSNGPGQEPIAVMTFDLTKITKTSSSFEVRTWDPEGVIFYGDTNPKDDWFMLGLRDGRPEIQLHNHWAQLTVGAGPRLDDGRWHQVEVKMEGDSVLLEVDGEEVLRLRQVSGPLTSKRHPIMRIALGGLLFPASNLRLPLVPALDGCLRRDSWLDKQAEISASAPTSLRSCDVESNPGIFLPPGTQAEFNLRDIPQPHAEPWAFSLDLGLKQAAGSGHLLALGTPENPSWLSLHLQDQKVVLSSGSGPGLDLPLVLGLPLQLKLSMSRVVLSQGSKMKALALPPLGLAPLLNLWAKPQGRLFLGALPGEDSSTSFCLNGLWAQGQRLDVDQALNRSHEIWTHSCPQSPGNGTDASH

SMILES: C[C@]12CCC(=O)C[C@@H]1CC[C@@H]1[C@@H]2CC[C@]2(C)[C@@H](O)CC[C@@H]12 [DHT, 5α-dihydrotestosterone]
- binding affinity for SHBG relative to testosterone [1]: at least three times

SMILES: Nc1nc2c(ncn2COCCO)c(=O)[nH]1 [acyclovir]
- conversion of vellus hairs to pigmented hairs ([2]; after 16 weeks of treatment, topical acyclovir 10% plus oral valacyclovir (500 mg)): some of the vellus hairs converted to pigmented hairs
- hair lengthening ([2]; after 20 weeks, topical acyclovir 10% plus oral valacyclovir (500 mg)): pigmented and unpigmented vellus hairs continued to lengthen
- hair growth on scalp ([2]; at 12 weeks, topical acyclovir increased to 10% plus oral valacyclovir (500 mg) from about week 4): long, unpigmented vellus hairs were visible on the scalp
- oral lesions ([2]; human, in vivo): marked increase in oral lesions
- hair growth on scalp noted by participant ([2]; topical acyclovir (5%) after twice daily scalp cleansing, after two weeks of treatment, one person, Norwood Level VII): small vellus hairs
